Data on four compounds can be found in patent US10071068B2, “Sustained release oral dosage forms of an R-baclofen prodrug” (XENOPORT, INC., priority 2009, dated 2018).

The nature of series [1]: FLODEX powder flowability (Flodex). The series is classed as physicochemical. The conditions noted are these: for Flowdex: crystalline compound (1) lot, Table 2; for Flodex: neat powder, listed as Compound (1). From the text:
The flow of dry powders was characterized using a FLODEX™ Powder Flowability Index Test Instrument (Hanson Research Corporation, Chatsworth, Calif.). The instrument was equipped with a cylindrical metal reservoir, which holds the test powder prior to flow testing. The cylindrical reservoir has an inside diameter of 5.7 cm and a length of […]. The bottom end of the reservoir can be closed with removable metal discs. Each disc has a round orifice centered in the disc. Orifice diameters range from 4 mm to 10 mm in 1 mm increments, and from 10 mm to 34 mm in 2 mm increments. Prior to flow testing, the orifice is blocked. Powder is then placed over the blocked orifice. When the orifice is unblocked, powder can flow through the orifice under the force of gravity if the orifice diameter is sufficiently large. Powder that flows through small orifices is considered to have flow properties useful for tableting. For example, a Flodex measurement (Flodex) of less than about 24 mm is […] high-speed tableting operations at commercial scale. A Flodex less than about 20 mm is useful for high-speed tableting operations. A Flodex of 18 mm or less is considered especially useful for high speed tableting operations.
The Flodex is determined by first gently filling the reservoir with approximately 70 cc of test powder while the orifice at the bottom is blocked, while avoiding severe piling, and without vibrating or tapping the powder bed. Next, the orifice is unblocked. This can be accomplished by opening a shutter that is supplied with the instrument. Alternatively, if a shutter is not used, the powder-filled reservoir fitted with a disc can be set on a dry, flat surface to block the orifice. Then, slowly and evenly, the reservoir is lifted to allow the powders to flow. In either procedure, if the powder flows through the orifice, a clear channel is left within the powder bed. […] The flow test is conducted with various orifice sizes until the minimum orifice size for good flow is identified, which is referred to as the Flodex.

Series [2] in a line: Particle size of compound (1) lots, wet and dry method. It is filed as physicochemical.
The conditions of series [3]: clinical trials (Gerson et al. 2009); cited from earlier work.
For series [4] the following is noted: dosed either orally or directly into the colon of a mammal; cited from earlier work.
A short description of series [5]: Bulk density, tap density and compressibility of powders. It is filed as physicochemical. The conditions noted are these: major component of Example 15 blend.

With `CC(C)C(=O)O[C@@H](OC(=O)NC[C@H](CC(=O)O)c1ccc(Cl)cc1)C(C)C` [Lot 70, (3R)-4-{[(1S)-2-Methyl-1-(2-methylpropanoyloxy)propoxy]carbonylamino}-3-(4-chlorophenyl)butanoic acid], the Flowdex in series [1] amounted to 26 mm. Moreover, the Flodex in series [1] (Lot 70) stood at 26 mm. Also, in series [2], the “Particle size, Dry method, dv0.5” value was found to be 27.53 μm; the “Particle size, Dry method, dv0.9” value was determined as 106.87 μm; the “Particle size, Wet method, dv0.5” value was 4.81 μm; the “Particle size, Wet method, dv0.9” value amounted to 37.2 μm.
With `CC(C)C(=O)O[C@@H](OC(=O)NC[C@H](CC(=O)O)c1ccc(Cl)cc1)C(C)C` [Compound (1), (3R)-4-{[(1S)-2-Methyl-1-(2-methylpropanoyloxy)propoxy]carbonylamino}-3-(4-chlorophenyl)butanoic acid], the reflux episodes result in series [3] was “reduce reflux episodes”. In addition, the “bioavailability as R-baclofen” value in series [4] is listed as “high bioavailability”. In series [5], the “Bulk Density” value was 0.15 g/cc.
Take `CC(C)C(=O)O[C@@H](OC(=O)NC[C@H](CC(=O)O)c1ccc(Cl)cc1)C(C)C` [Lot 71, (3R)-4-{[(1S)-2-Methyl-1-(2-methylpropanoyloxy)propoxy]carbonylamino}-3-(4-chlorophenyl)butanoic acid]: the Flowdex in series [1] was determined as 26 mm. The Flodex in series [1] (Lot 71) amounted to 26 mm. In addition, in series [2], the “Particle size, Dry method, dv0.5” value stood at 17.64 μm; the “Particle size, Dry method, dv0.9” value was 107.48 μm; the “Particle size, Wet method, dv0.5” value is recorded as 22.17 μm; the “Particle size, Wet method, dv0.9” value was 63.02 μm.
The compound `CC(C)C(=O)O[C@@H](OC(=O)NC[C@H](CC(=O)O)c1ccc(Cl)cc1)C(C)C` [Lot 4, (3R)-4-{[(1S)-2-Methyl-1-(2-methylpropanoyloxy)propoxy]carbonylamino}-3-(4-chlorophenyl)butanoic acid] came in with a Flowdex in series [1] of 23 mm. In series [1] (Lot 4), this compound gave a Flodex of 24 mm. Further, in series [2], the “Particle size, Dry method, dv0.5” value stood at 11.09 μm; the “Particle size, Dry method, dv0.9” value is given as 102 μm; the “Particle size, Wet method, dv0.5” value is reported as 3.35 μm; the “Particle size, Wet method, dv0.9” value worked out at 40.47 μm.
